Laboratory results reported in PubChem BioAssay (NCI).
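Five compound concentrations were applied to cells in 96-well plates for 48 hours; endpoints were derived by simple linear interpolation of the resulting dose-response curve. GI50 is the concentration that inhibits growth by half. TGI: total growth inhibition.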

How the values were obtained:
Test in all cases: DTP human tumour cell line panel, 48 h
HL-60(TB) leukemia = test system: HL-60(TB) leukemia
DMS 114 small cell lung = test system: DMS 114 small cell lung
UACC-62 melanoma = test system: UACC-62 melanoma
A498 renal = test system: A498 renal
IGROV1 ovarian = test system: IGROV1 ovarian
HOP-18 NSCLC = test system: HOP-18 NSCLC
COLO 205 colon = test system: COLO 205 colon
RPMI-8226 leukemia = test system: RPMI-8226 leukemia
A549 NSCLC = test system: A549 NSCLC
MDA-MB-435 = test system: MDA-MB-435

Structure (SMILES) | TGI (HL-60(TB) leukemia) [µM] | TGI (DMS 114 small cell lung) [µM] | TGI (UACC-62 melanoma) [µM] | TGI (A498 renal) [µM] | TGI (IGROV1 ovarian) [µM] | TGI (HOP-18 NSCLC) [µM] | TGI (COLO 205 colon) [µM] | TGI (RPMI-8226 leukemia) [µM] | TGI (A549 NSCLC) [µM] | TGI (MDA-MB-435) [µM] | GI50 (HL-60(TB) leukemia) [µM] | GI50 (DMS 114 small cell lung) [µM] | GI50 (UACC-62 melanoma) [µM] | GI50 (A498 renal) [µM] | GI50 (IGROV1 ovarian) [µM] | GI50 (MDA-MB-435) [µM] | GI50 (HOP-18 NSCLC) [µM] | GI50 (COLO 205 colon) [µM] | GI50 (RPMI-8226 leukemia) [µM] | GI50 (A549 NSCLC) [µM]
C#CC1/C(=C\C(=O)OC)CCCC1O (stereo not drawn) | > 100 | > 100 | > 100 | > 100 | > 100 | > 100 | > 100 | > 100 | > 100 |  |  |  |  |  |  |  |  |  |  | 
C/C(N=NC(=S)N1CC2CCC(CC2)C1)=C1\C=CC=CN1O | 3.54 | 5.4 | 29.3 | > 94.9 | > 100 | > 100 | 38.4 | > 39.2 | > 68.8 | > 100 |  |  |  |  |  |  |  |  |  | 
N#CC(C(=O)/C(=N\NC(N)=O)C(C#N)c1ccc(Cl)cc1)c1ccc(Cl)cc1 (stereo not drawn) | > 100 | > 100 | > 100 | > 100 | > 100 | > 100 | > 100 | > 100 | > 100 |  |  |  |  |  |  |  |  |  |  | 
COC1C(OC(=S)Nc2ccccc2)c2ccccc2N1C(C)=O (stereo not drawn) | > 100 | > 100 | > 100 | > 100 | > 100 | > 100 | > 100 | > 100 | > 100 |  |  |  |  |  |  |  |  |  |  | 
Cc1c(N(C)C)ccc2c(=O)c3cccc(CC(=O)O)c3oc12 | > 100 | > 100 | > 100 | > 100 | > 100 | > 100 | > 100 | > 100 | > 100 | > 100 |  |  |  |  |  |  |  |  |  | 
COC(=O)/C(=N\NC(N)=S)C(C(=O)OC)C(=O)C(=O)Nc1ccc(C)cc1 (stereo not drawn) | > 100 | > 100 | > 100 | > 100 | > 100 | > 100 | > 100 | > 100 | > 100 |  |  |  |  |  |  |  |  |  |  | 
CCC[CH2][Sn]([CH2]CCC)([O]C(=O)c1ccc(OC)c(OC)c1OC)[O][Sn]([CH2]CCC)([CH2]CCC)[O]C(=O)c1ccc(OC)c(OC)c1OC | 0.554 | 0.171 | 0.504 | 1.25 | 2.47 | 0.473 | 0.917 | 0.846 | 5.42 | 1.9 | 0.112 | 0.0281 | 0.164 | 0.284 | 0.891 | 0.579 | 0.27 | 0.27 | 0.104 | 2.27
O=C(/C(=C/c1ccc(Cl)cc1)c1ccccc1)c1ccccc1 | 66.5 | 37.2 | 29.4 | 44.9 | 49.1 | 62.3 | 33 | 45.4 |  |  |  |  |  |  |  |  |  |  |  | 
COc1ccc2c(c1OCC(=O)O)C(=O)C(CCC(=O)O)CC2 (stereo not drawn) | > 100 | > 100 | > 100 | > 100 | > 100 | > 100 | > 100 | > 100 | > 100 |  |  |  |  |  |  |  |  |  |  | 
CC12CCC(=O)C[C@H]1CCC(OC=O)C2Br (stereo partly drawn) | > 100 | > 100 | > 100 | > 100 | > 100 | > 100 | > 100 | > 100 | > 100 |  |  |  |  |  |  |  |  |  |  | 
C/C(CC(=O)Nc1ccc(C)c(C)c1)=N\N(c1ccccc1)c1ccccc1 | > 100 | 33.2 | 57.4 | > 100 | > 100 | > 100 | 34.6 | > 100 | > 100 |  |  |  |  |  |  |  |  |  |  | 
CCOC(=O)c1nc2c(OC)nn(O)cc-2c1[N+](=O)[O-] | 46.4 | 48.4 | 40.5 | 36.2 | > 100 | 34.9 | 61.9 | 56.2 | > 100 |  |  |  |  |  |  |  |  |  |  | 
Cc1nc(Nc2ccc(Cl)cc2)sc1C(=O)NNC(=S)NN | 50.2 | 39 | 33.7 | 29.1 | 63 | 33.5 | 43.6 | 79.5 | 39.6 |  |  |  |  |  |  |  |  |  |  | 
Cc1ccc(C)c(NC(=O)c2cccc([N+](=O)[O-])c2O)c1 | > 100 | 47.6 | 82.9 | 80.9 | > 100 | > 100 | 31.1 | > 100 | > 100 |  |  |  |  |  |  |  |  |  |  | 
N#C/C(=C\c1ccc2ccccc2c1)C(=O)c1ccccc1 | 71.9 | > 100 | > 78.5 | > 100 | > 100 | > 100 | > 100 | 97.8 | > 100 | 43.2 |  |  |  |  |  |  |  |  |  | 
